Columns and labels:
[1] = tested on: poly A-poly U (AU-RNA, pApU) (RNA, polymer) A/U; test: UV thermal denaturation at 260 nm; conditions: Na+ (sodium cacodylate, I = 50 mM); pH 7.0; r = [compound]/[polynucleotide] = 0.2; error ± 0.5 °C; per base
[2] = tested on: poly dAdT-poly dAdT (AT-DNA, p(dAdT)2) (DNA, polymer) AT; test: fluorimetric titration, Scatchard; conditions: Na+ (sodium cacodylate, I = 0.05 M); pH 7.0, 25 °C; Scatchard n fixed at 0.2 or 0.3; per base
AU-RNA (poly A-poly U) = test: Fluorimetric titration with AU-RNA, Scatchard equation; format: binding; conditions: pH 7, sodium cacodylate buffer, I = 0.05 M
Method: (§1) Experiments were conducted in an aqueous buffer solution (pH = 7.0 or pH= 5.0, I = 0.05 M, sodium cacodylate buffer). For the UV-Vis spectra were used Varian Cary 100 Bio spectrometer, for fluorescence spectra we used the Varian Cary Eclipse fluorimeter and for CD spectra we used the JASCO J815 spectropolarimeter, all conducted at 25.0 °C using appropriate quartz cuvettes (path length: 1 cm).
(§2) Polynucleotides were purchased as noted: poly dAdT-poly dAdT, poly dGdC-poly dGdC, poly A-poly U (ds-RNA), (Sigma-Aldrich, Schnelldorf, Germany), calf thymus (ct)-DNA (Sigma-Aldrich, Schnelldorf, Germany) and dissolved in sodium cacodylate buffer, I = 0.05 M, pH = 7.0. The ct-DNA was sonicated and filtered through a 0.45 µm filter to obtain mostly short (ca. 100 base pairs) rod-like B-helical DNA fragments. The concentration of DNA or RNA was determined spectroscopically as the c(nucleobase) using producer-provided molar extinction coefficients.
(§3) Fortunately, strong emission from the compounds studied allowed fluorimetric titrations to be performed at much lower concentrations of the dyes (c = 5 × 10^−8 M), thus preventing precipitation of non-methylated 1 or 2, and allowing for the collection of numerous data points at excess of DNA/RNA binding sites over c(dye). […]

[3] = tested on: poly A-poly U (AU-RNA, pApU) (RNA, polymer) A/U; test: fluorimetric titration, Scatchard; conditions: Na+ (sodium cacodylate, I = 0.05 M); pH 7.0, 25 °C; Scatchard n fixed at 0.2 or 0.3; per base
[4] = target: GC-DNA (poly dGdC-poly dGdC); test: Fluorimetric titration with GC-DNA, Scatchard equation; format: binding; conditions: pH 7, sodium cacodylate buffer, I = 0.05 M
Method: as §1, §2, §3

WI-38 cells = test: MTT cell viability assay, WI-38, with or without UV light; format: cell-based, human; conditions: WI-38, 10 μM and 1 μM, without UV
Method: Cells. Commercially available from American Type Culture Collection (ATCC), human epithelial lung adenocarcinoma A549 (ATCC® CCL-185™) and human normal lung fibroblast WI-38 (ATCC® CCL-75™) were grown according to supplier’s conditions, namely in Dulbecco Modified Eagle’s Medium (DMEM, Sigma Aldrich, St. Louis, MO, USA) supplemented with 10% of fetal bovine serum (FBS, Sigma Aldrich, USA). Cells were incubated in the cell incubator (Thermo Fischer Scientific, Waltham, MA, USA) at 37 °C and 5% CO2 in a humidified atmosphere.
Cell viability assay. In order to obtain a 10 mM stock solution chemical compounds (2M, 1, and 1M) were sterilely diluted in an appropriate volume of dimethyl sulfoxide solution (DMSO, Gram-Mol, Zagreb, Croatia). Solutions were kept in the dark and stored at 4 °C. The cytotoxic effects of each compound were assayed on A549 and WI-38 cells. […] Briefly, cells were seeded in 96-well tissue culture plates and 24 h later treated with 2M, 1, or 1M in the concentration range of 10–0.1 μM. Cells treated with the same dilutions of DMSO represented the control, while cells treated only with DMEM (10% FBS) represented the negative control. […] The resulting MTT-formazan products were dissolved using DMSO, and their absorbance at 600 nm was measured using a microplate reader. […]

A549 cells = test: Detection of total ROS (DCF, flow cytometry); format: cell-based, human; conditions: A549, 10 µM
Method: Detection of total ROS. For detecting total ROS, A549 cells were seeded in 12-well tissue culture plates and 24 h after were treated with a 10 μM working solution of the respective compound and incubated for 90 min (37 °C, 5% CO2), allowing the compound to enter to cells. The same dilution of DMSO served as a control, while H2O2 (0.002%) was used as a positive control. One plate was irradiated with UV light (350 nm) for 5 min, and was analysed immediately after UV exposure. The plate that was not irradiated with UV light served as the control, and was incubated in the cell incubator (37°C, 5% CO2) during the whole experiment. Subsequently, cells were washed with PBS, trypsinised, resuspended with cold PBS supplemented with 10% FBS and centrifuged for 5 min (RT, 1100 g). Cell pellets were resuspended and washed again, but this time with cold PBS supplemented with 1% FBS and centrifuged for 5 min (RT, 1100 g). After the second washing, cell pellets were resuspended in 5 μM 2′,7′–dichloro-fluorescin diacetate (H2DCFDA, Sigma, USA) which is converted to dichlorofluorescein (DCF) in contact with ROS. Unstained cells were resuspended in PBS supplemented with 1% FBS. Cells were then analysed by flow cytometry using FACSCalibur (BD Biosciences, San Jose, CA, USA).

ct-DNA = test: Thermal denaturation of ct-DNA (∆Tm); format: binding, calf; conditions: I = 50 mM
Method: as §1, §2
Thermal denaturation of ds-DNA, ds-RNA and their complexes with studied compounds was performed by monitoring the absorption change at 260 nm as a function of temperature. Tm values are the midpoints of the transition curves determined from the maximum of the first derivative and checked graphically by the tangent method. The ∆Tm values were calculated by subtracting the Tm of the free nucleic acid from the Tm of the complex. Every ∆Tm value here reported was the average of at least two measurements. The error in ∆Tm is ± 0.5 °C.

Row | Compound | ∆Tm [1] [°C] | logKs [2] | Binding constant logKs AU-RNA (AU-RNA (poly A-poly U)) | logKs [3] | Binding constant logKs GC-DNA [4] | Cytotoxic effect relative to A549 (WI-38 cells) | Intracellular ROS production (A549 cells; UV light 350 nm 5 min) | Intracellular ROS production (A549 cells; kept in dark) | ∆Tm ct-DNA (ct-DNA; r = 0.2, pH 7.0, sodium cacodylate buffer) | ∆Tm ct-DNA (ct-DNA; r = 0.3, pH 7.0, sodium cacodylate buffer) | ∆Tm ct-DNA (ct-DNA; r = 0.1, pH 5.0, sodium cacodylate buffer) [°C] | ∆Tm ct-DNA (ct-DNA; r = 0.3, pH 5.0, sodium cacodylate buffer) [°C]
1 | C[n+]1ccc(-c2cc3ccc4cccc5ccc(c2)c3c45)cc1 [1M, 2-para-N-methylpyridinium pyrene] | 3 | 5.9 | 5.8 | 5.8 | 7.0 | somewhat more resilient | immediate and strong increase in ROS production | induced the production of intracellular ROS | – | – | – | –
2 | C[n+]1ccc(-c2cc3ccc4cc(-c5cc[n+](C)cc5)cc5ccc(c2)c3c45)cc1 [2M] | 4 | 7.1 | 8.5 | 8.5 | 9.1 | somewhat more resilient | immediate and strong increase in ROS production | – | ^d >16 °C | ^d >16 °C | – | –
3 | c1cc2ccc3cc(-c4ccncc4)cc4ccc(c1)c2c34 [compound 1] | – | – | – | – | – | – | immediate and strong increase in ROS production | – | – | – | 0 | 2

From paper PMC9696974 (Pharmaceutics, 2022)
